Results taken from paper PMC6792352, “Limited Chemical Structural Diversity Found to Modulate Thyroid Hormone Receptor in the Tox21 Chemical Library” (Environmental Health Perspectives, 2019).
Where a name gives a salt, the structure may show the parent alone.

Assay: in vitro
Conditions: rat, gh3-tre-luc cells

ClCc1cccnc1 [3-(Chloromethyl)pyridine hydrochloride]
CC50 at 24 h (AC50 (uM) modified / 1000): > 90 µM

O=P(O)(O)C(Sc1ccc(Cl)cc1)P(=O)(O)O [Tiludronate disodium]
CC50 at 24 h (AC50 (uM) modified / 1000): > 50 µM

COc1cc(/C=C/C(=O)N2CCN(CC(=O)N3CCCC3)CC2)cc(OC)c1OC [Cinepazide maleate]
CC50 at 24 h (AC50 (uM) modified / 1000): > 50 µM

COc1ccc(N)cc1 [4-Methoxyaniline hydrochloride]
CC50 at 24 h (AC50 (uM) modified / 1000, Tox21_110001=Tox21_201498, viability, 1 nM T3 present, 24 h): > 90 µM

CCCOC(=O)c1ccc(C(=O)OCCC)nc1 [Dipropyl 2,5-pyridinedicarboxylate]
CC50 at 24 h (AC50 (uM) modified / 1000): > 90 µM

CCOc1ccccc1OCC [1,2-Diethoxybenzene]
CC50 at 24 h (AC50 (uM) modified / 1000): > 90 µM

O=C(NOCC1CC1)c1ccc(F)c(F)c1Nc1ccc(I)cc1Cl [C.I. 1040]
CC50 at 24 h (AC50 (uM) modified / 1000): 21.1 µM

O=P(OCCCl)(OCCCl)OCCCl [Tris(2-chloroethyl) phosphate]
CC50 at 24 h (AC50 (uM) modified / 1000, Tox21_110001=Tox21_201254, viability, 1 nM T3 present, 24 h): > 90 µM

NS(=O)(=O)c1cc2c(cc1Cl)NC(C1CC3C=CC1C3)NS2(=O)=O (stereo not drawn) [Cyclothiazide]
CC50 at 24 h (AC50 (uM) modified / 1000): > 50 µM

CCO[Si](CC(C)C)(OCC)OCC [Triethoxy(2-methylpropyl)silane]
CC50 at 24 h (AC50 (uM) modified / 1000): > 90 µM

CC(C)Nc1ccccc1 [N-Isopropylaniline]
CC50 at 24 h (AC50 (uM) modified / 1000): > 90 µM

CC(=O)OCC1=C(C(=O)O)N2C(=O)[C@@H](NC(=O)Cc3ccccc3)[C@H]2SC1 [Cefaloram]
CC50 at 24 h (AC50 (uM) modified / 1000): > 50 µM

Nc1cc(Cl)c(-c2cc(Cl)c(N)cc2Cl)cc1Cl [2,2',5,5'-Tetrachlorobenzidine]
CC50 at 24 h (AC50 (uM) modified / 1000): 13.7 µM

O=c1oc2cc(O)ccc2c2oc3cc(O)ccc3c12 [Coumestrol]
CC50 at 24 h (AC50 (uM) modified / 1000): > 90 µM

CC(C)c1c(CN(C)C(C)Cc2ccccc2)n(C)n(-c2ccccc2)c1=O (stereo not drawn) [Famprofazone]
CC50 at 24 h (AC50 (uM) modified / 1000): > 20 µM

CC(=O)N[C@@H](CS)C(=O)O [N-Acetyl-L-cysteine]
CC50 at 24 h (AC50 (uM) modified / 1000): > 90 µM

NC(=O)OCC(O)COc1ccc(Cl)cc1 (stereo not drawn) [Chlorphenesin carbamate]
CC50 at 24 h (AC50 (uM) modified / 1000): > 20 µM

CNC(=O)ON=C(C)SC [Methomyl]
CC50 at 24 h (AC50 (uM) modified / 1000): > 90 µM

Oc1cccc2cc3cccc(O)c3c(O)c12 [1,8,9-Trihydroxyanthracene]
CC50 at 24 h (AC50 (uM) modified / 1000): > 90 µM

c1ccc2cc3c(cc2c1)-c1cccc2cccc-3c12 [Benzo(k)fluoranthene]
CC50 at 24 h (AC50 (uM) modified / 1000, Tox21_110001=Tox21_200721, viability, 1 nM T3 present, 24 h): > 90 µM

C=CC(C)(O)CCC=C(C)C (stereo not drawn) [Linalool]
CC50 at 24 h (AC50 (uM) modified / 1000): > 90 µM

Cc1ncc([C@@H](CCCCCCc2ccc3c(n2)NCCC3)CC(=O)O)cn1 [PharmaGSID_47333]
CC50 at 24 h (AC50 (uM) modified / 1000): > 90 µM

CCN [Ethylammonium nitrate]
CC50 at 24 h (AC50 (uM) modified / 1000, Tox21_110001=Tox21_200578, viability, 1 nM T3 present, 24 h): > 90 µM

O=c1[nH][nH]c2ccccc12 [3-Indazolinone]
CC50 at 24 h (AC50 (uM) modified / 1000): > 90 µM

NS(=O)(=O)C(F)(F)C(F)(F)C(F)(F)C(F)(F)C(F)(F)C(F)(F)C(F)(F)C(F)(F)F [Perfluorooctanesulfonamide]
CC50 at 24 h (AC50 (uM) modified / 1000): 52.8 µM

C[C@H]1COc2c(C3(N)CC3)c(F)cc3c(=O)c(C(=O)O)cn1c23 [Pazufloxacin]
CC50 at 24 h (AC50 (uM) modified / 1000): > 50 µM

CCCCOCCOP(=O)(OCCOCCCC)OCCOCCCC [Tris(2-butoxyethyl) phosphate]
CC50 at 24 h (AC50 (uM) modified / 1000, Tox21_110001=Tox21_201593, viability, 1 nM T3 present, 24 h): > 90 µM
CC50 at 24 h (AC50 (uM) modified / 1000, Tox21_110001=Tox21_302891, viability, 1 nM T3 present, 24 h): 58.5 µM

Cc1ccccc1S(=O)(=O)O [Sodium 2-methylbenzenesulfonate]
CC50 at 24 h (AC50 (uM) modified / 1000): > 100 µM

CCCCCCCCCCCCCCCCCC(=O)O [Triethanolamine stearate]
CC50 at 24 h (AC50 (uM) modified / 1000): > 90 µM

Oc1cc(O)c(Cl)cc1Cl [4,6-Dichloro-1,3-benzenediol]
CC50 at 24 h (AC50 (uM) modified / 1000): > 90 µM

CCSC(=O)N(CC(C)C)CC(C)C [Butylate]
CC50 at 24 h (AC50 (uM) modified / 1000): > 90 µM

COc1ccc2c(c1)c(CC(=O)O)c(C)n2C(=O)c1ccc(Cl)cc1 [Indomethacin]
CC50 at 24 h (AC50 (uM) modified / 1000): > 90 µM

Cc1ccc2c(c1N)C(=O)c1ccccc1C2=O [1-Amino-2-methylanthraquinone]
CC50 at 24 h (AC50 (uM) modified / 1000): 78.4 µM

C#C[C@]1(OC(C)=O)CC[C@H]2[C@@H]3CCC4=CC(=NO)CC[C@@H]4[C@H]3CC[C@@]21CC (mixture of isomers) [Norgestimate]
CC50 at 24 h (AC50 (uM) modified / 1000): 30.6 µM

CCCCC(CC)COP(=O)(OCC(CC)CCCC)OCC(CC)CCCC (stereo not drawn) [Tris(2-ethylhexyl) phosphate]
CC50 at 24 h (AC50 (uM) modified / 1000): > 90 µM

c1cc2ccc3cccc4ccc(c1)c2c34 [Pyrene]
CC50 at 24 h (AC50 (uM) modified / 1000, Tox21_110001=Tox21_400063, viability, 1 nM T3 present, 24 h): > 100 µM

CC(C)(C)N(CCO)CCO [2,2'-(tert-Butylimino)diethanol]
CC50 at 24 h (AC50 (uM) modified / 1000): > 90 µM

O=C1NC(=O)C(c2ccccc2)(c2ccccc2)N1 [5,5-Diphenylhydantoin]
CC50 at 24 h (AC50 (uM) modified / 1000): > 90 µM

Cc1c(NC(C)C)c(=O)n(-c2ccccc2)n1C [Ramifenazone]
CC50 at 24 h (AC50 (uM) modified / 1000): > 50 µM

Cc1ccc2cccnc2c1 [7-Methylquinoline]
CC50 at 24 h (AC50 (uM) modified / 1000): > 90 µM

OC(CCN1CCCCC1)(c1ccccc1)C1CCCCC1 (stereo not drawn) [Trihexyphenidyl hydrochloride]
CC50 at 24 h (AC50 (uM) modified / 1000): > 50 µM

C[C@@H](Oc1ccc(CNC(=O)c2cccnc2Oc2ccc3c(c2)OCO3)c(F)c1)C(=O)O [CP-671305]
CC50 at 24 h (AC50 (uM) modified / 1000): > 90 µM

C=C[Si](OC)(OC)OC [Vinyltrimethoxysilane]
CC50 at 24 h (AC50 (uM) modified / 1000): > 90 µM

CCOc1cc(CC(=O)N[C@@H](CC(C)C)c2ccccc2N2CCCCC2)ccc1C(=O)O [Repaglinide]
CC50 at 24 h (AC50 (uM) modified / 1000): > 20 µM

c1ccc(Nc2ccc(Nc3ccccc3)cc2)cc1 [N,N'-Diphenyl-p-phenylenediamine]
CC50 at 24 h (AC50 (uM) modified / 1000): 33.3 µM

Oc1ccc(Cl)c2cccnc12 [Cloxyquin]
CC50 at 24 h (AC50 (uM) modified / 1000): 7.71 µM

c1ccc2[nH]cnc2c1 [Benzimidazole]
CC50 at 24 h (AC50 (uM) modified / 1000): > 90 µM

CC(C)(CO)[C@@H](O)C(=O)NCCCO [Dexpanthenol]
CC50 at 24 h (AC50 (uM) modified / 1000): > 50 µM

O=C(OCc1ccccc1)c1ccccc1 [Benzyl benzoate]
CC50 at 24 h (AC50 (uM) modified / 1000): > 90 µM

CCN(CC)CCOCCOC(=O)C(CC)(CC)c1ccccc1 [Oxeladin citrate]
CC50 at 24 h (AC50 (uM) modified / 1000): 27.1 µM

O=[N+]([O-])c1nccn1CO[C@@H](CO)[C@H](O)CO [Doranidazole]
CC50 at 24 h (AC50 (uM) modified / 1000): > 50 µM

CN(C)CCN(Cc1ccccc1)c1ccccn1 [Tripelennamine citrate]
CC50 at 24 h (AC50 (uM) modified / 1000): > 50 µM

Cc1nc(N)nc(N)n1 [6-Methyl-1,3,5-triazine-2,4-diamine]
CC50 at 24 h (AC50 (uM) modified / 1000): > 90 µM

N#C/C=C/C#N [Fumaronitrile]
CC50 at 24 h (AC50 (uM) modified / 1000, Tox21_110001=Tox21_201151, viability, 1 nM T3 present, 24 h): 49.9 µM

CCOc1cc(-c2nccc3cc(OC)c(OC)cc23)cc(OCC)c1OCC [Octaverine]
CC50 at 24 h (AC50 (uM) modified / 1000): 28.2 µM

COc1cccc(N(C)C(=S)Oc2ccc3c(c2)CCCC3)n1 [Liranaftate]
CC50 at 24 h (AC50 (uM) modified / 1000): > 50 µM

NS(=O)(=O)c1ccccc1Cl [2-Chlorobenzenesulfonamide]
CC50 at 24 h (AC50 (uM) modified / 1000): > 90 µM

CCCCOC(=O)CC(CC(=O)OCCCC)(OC(C)=O)C(=O)OCCCC [Acetyl tributyl citrate]
CC50 at 24 h (AC50 (uM) modified / 1000): > 90 µM

C(=C\c1ccccc1)/c1ccccc1 [trans-Stilbene]
CC50 at 24 h (AC50 (uM) modified / 1000): > 100 µM

C#C[C@]1(O)CC[C@H]2[C@@H]3CCC4=CC(=O)CC[C@@H]4[C@H]3CC[C@@]21C [Norethindrone]
CC50 at 24 h (AC50 (uM) modified / 1000): 59.2 µM

CCCc1c(OCCCCc2nnn[nH]2)ccc(C(C)=O)c1O [Tomelukast]
CC50 at 24 h (AC50 (uM) modified / 1000): > 50 µM

COc1cc2c(cc1OC)[C@@]13CCN4CC5=CCO[C@H]6CC(=O)N2[C@H]1[C@H]6[C@H]5C[C@H]43 [Brucine]
CC50 at 24 h (AC50 (uM) modified / 1000, Tox21_110001=Tox21_111349, viability, 1 nM T3 present, 24 h): > 50 µM
CC50 at 24 h (AC50 (uM) modified / 1000, Tox21_110001=Tox21_302174, viability, 1 nM T3 present, 24 h): > 90 µM

Cc1ccc2c(c1)C(=O)c1ccccc1C2=O [2-Methylanthraquinone]
CC50 at 24 h (AC50 (uM) modified / 1000): > 90 µM

CCOC(=O)C(Cl)Cc1cc(-n2nc(C)n(C(F)F)c2=O)c(F)cc1Cl (stereo not drawn) [Carfentrazone-ethyl]
CC50 at 24 h (AC50 (uM) modified / 1000, Tox21_110001=Tox21_300994, viability, 1 nM T3 present, 24 h): > 90 µM

COc1ccccc1OC [1,2-Dimethoxybenzene]
CC50 at 24 h (AC50 (uM) modified / 1000, Tox21_110001=Tox21_302297, viability, 1 nM T3 present, 24 h): > 90 µM

CCCCCOC(=O)CCC [Pentyl butyrate]
CC50 at 24 h (AC50 (uM) modified / 1000): > 90 µM

CCN1C[C@]2(COC)[C@H](O)C[C@H](OC)[C@]34C1[C@H]([C@H](OC)[C@H]23)[C@]1(OC(C)=O)[C@H]2[C@@H](OC(=O)c3ccccc3)[C@](O)(C[C@H]24)[C@@H](OC)[C@@H]1O [Aconitine]
CC50 at 24 h (AC50 (uM) modified / 1000): > 50 µM

Clc1cccc(C(Cl)(Cl)Cl)n1 [Nitrapyrin]
CC50 at 24 h (AC50 (uM) modified / 1000): > 90 µM

CCCCCl [1-Chlorobutane]
CC50 at 24 h (AC50 (uM) modified / 1000, Tox21_110001=Tox21_111072, viability, 1 nM T3 present, 24 h): > 50 µM
CC50 at 24 h (AC50 (uM) modified / 1000, Tox21_110001=Tox21_200865, viability, 1 nM T3 present, 24 h): > 90 µM
